Data taken from US20220315908A1, “NOVEL GARDNERELLA ENDOLYSINS AND USES THEREOF” (priority 2019, published 2022).
Converted amounts (≈) assume the structure as drawn.

System: G. piotii (Gv_17)
Test: MIC and MBC microbroth dilution
Assay type: cell-based, Gardnerella piotii
Settings: for MIC / MBC: Gardnerella piotii; for MIC: 48 h
Protocol: One of the main deficiencies in the treatment of BV is the high rate of recurrence in many women, which leads to repeated administration of antibiotics and concomitant destabilization of the microbiome and other side effects. The minimal inhibitory concentration (MIC) and minimal bactericidal concentration (MBC) on Gardnerella cells of the strains also used for the endolysin activity assays were then measured using the method described in Reference Example 6 and 7. […] Essentially, Gardnerella suspensions at 2.5×10^7 CFU/ml were incubated with the concentration of antibiotics as indicated and incubated for 48 h at 37° C. under anaerobic conditions. […] OD(610) was measured at the beginning and the end of the experiment. At the end of the experiment, 2 ul of each reaction mix was spotted on agar to determine the MBC.
The conditions under which MIC and MBC were measured are more rigorous than the standard.
Bacteria were plated from cryo stock on BD Choc Agar plates (Gardnerella) and incubated at 37° C. for 48 h under anaerobic conditions. Colonies were scraped from the plate, resuspended in Hardy Broth or NYC-III-HS-pH 5.0, and the suspension adjusted to OD (610 or 620 nm as indicated) 0.05. It has to be noted that two Tecan Microplate readers, having respectively a 610 nm or 620 nm filter, have been used interchangeably in the experiments. Although it doesn't make any difference for the experiments, the exact wavelength used is specified in each example. Antibiotics were prepared as 20× stocks for each of the required final concentrations. 95 μl of cell suspension was mixed with 5 μl antibiotics dilution in a 384-well plate. OD (610-620 as indicated) at the start of the reaction was measured, then the plate was incubated at 37° C. for 48 h under anaerobic conditions. After that, the OD (610-620 as indicated) was measured again for MIC determination, where MIC was defined as the lowest concentration of antibiotic where the OD (610-620 as indicated) was not above the level measured at the beginning of the experiment. After measuring OD, 2 μl of each well were spotted on a NYC-III+HS Agar plate. The plates were then incubated for further 48 h at 37° C. under anaerobic conditions. After incubation, cell growth on each spot was evaluated, and the MBC defined as the lowest concentration of antibiotics where no bacteria grew on the plate. The experiments were conducted in triplicate for each condition. In the second round of MIC and MBC experiments with antibiotics the Gardnerella cell suspension was adjusted to the McFarland standard 0.5 (approximately OD (610) 0.07) and then diluted 1:75 according to the CLSI (Clinical and Laboratory Standards Institute) standards. Antibiotics were prepared according to the CLSI standards and 50 μl of cell suspension was mixed in a 96-well plate with 50 μl antibiotics. Otherwise the MIC and MBC was determined as described above. For the MIC and MBC determination of the domain swapped endolysin H2B10 50 μl of Gardnerella cell suspension was mixed in a 96-well plate with 50 μl of H2B10 containing solution, which where serially diluted 1:1. OD610 at the start of the reaction was measured, then the plate was incubated at 37° C. for 48 h under anaerobic conditions. After that, the OD(610) was measured again for MIC determination, where MIC was defined as the lowest concentration of H2B10 where the OD was not or only slightly above the level measured at the beginning of the experiment.

MIC (first round: […]10^7 CFU/ml, Hardy broth, 384-well, 48 h 37° C. anaerobic): 64 µg/mL (≈ 374 µM)
MIC (second round: 1×10^5-1×10^6 CFU/ml (CLSI), NYC-III broth, 96-well, 48 h anaerobic): 16 µg/mL (≈ 93.5 µM)
resistance class of MIC, Metronidazole (first round): R (>=32 μg/mi for Metronidazole)
Compound: Cc1ncc([N+](=O)[O-])n1CCO [Metronidazole]
MBC (first round: […]10^7 CFU/ml, minimal concentration fully eradicating the suspension): > 128 µg/mL
MBC (second round: 1×10^5-1×10^6 CFU/ml (CLSI), NYC-III broth, 96-well): 64 µg/mL (≈ 374 µM)
resistance class given with MBC, Metronidazole (second round): R (>=32 μg/mi for Metronidazole)
